Experiment [1] deals with Phosphatidylinositol 4,5-bisphosphate 3-kinase catalytic subunit beta isoform (Homo sapiens) (UniProt P42338). Briefly: Selectivity interaction (KinomeScan (DiscoverX)) EUB0000607a PIK3CB. Particulars: at 10 µM.
In experiment [2] the target is Mitogen-activated protein kinase 1 (Homo sapiens, UniProt P28482). Briefly: Selectivity interaction (KinomeScan (DiscoverX)) EUB0001619a MAPK1. Particulars: at 1 µM.
Experiment [3] addresses T1, SNF-related serine/threonine-protein kinase (Homo sapiens) (UniProt Q9NRH2).
T1 sequence (whole entry): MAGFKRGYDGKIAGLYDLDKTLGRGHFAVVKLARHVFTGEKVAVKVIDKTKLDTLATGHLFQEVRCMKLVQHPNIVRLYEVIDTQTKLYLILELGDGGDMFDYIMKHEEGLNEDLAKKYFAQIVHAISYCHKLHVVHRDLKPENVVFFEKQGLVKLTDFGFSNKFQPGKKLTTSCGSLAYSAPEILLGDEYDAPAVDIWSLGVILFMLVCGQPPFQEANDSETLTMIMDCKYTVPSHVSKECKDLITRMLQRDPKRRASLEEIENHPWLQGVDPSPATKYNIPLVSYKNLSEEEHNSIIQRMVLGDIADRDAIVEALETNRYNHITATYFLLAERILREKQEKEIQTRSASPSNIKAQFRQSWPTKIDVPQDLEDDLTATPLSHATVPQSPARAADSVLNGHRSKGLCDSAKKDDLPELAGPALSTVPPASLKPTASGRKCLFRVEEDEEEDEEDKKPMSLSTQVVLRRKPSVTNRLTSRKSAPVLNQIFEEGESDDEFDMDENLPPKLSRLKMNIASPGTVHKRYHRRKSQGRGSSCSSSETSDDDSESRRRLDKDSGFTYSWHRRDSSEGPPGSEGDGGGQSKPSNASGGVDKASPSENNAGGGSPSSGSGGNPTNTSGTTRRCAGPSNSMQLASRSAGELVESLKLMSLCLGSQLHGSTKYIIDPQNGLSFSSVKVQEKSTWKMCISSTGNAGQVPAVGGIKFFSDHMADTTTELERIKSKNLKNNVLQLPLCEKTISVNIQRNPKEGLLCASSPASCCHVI
Briefly: Selectivity interaction (KinomeScan (DiscoverX)) EUB0001619a SNRK. To be noted: at 1 µM.

The target of experiment [4] is T2, Aurora kinase A (Homo sapiens) (UniProt O14965).
T2 sequence (whole entry): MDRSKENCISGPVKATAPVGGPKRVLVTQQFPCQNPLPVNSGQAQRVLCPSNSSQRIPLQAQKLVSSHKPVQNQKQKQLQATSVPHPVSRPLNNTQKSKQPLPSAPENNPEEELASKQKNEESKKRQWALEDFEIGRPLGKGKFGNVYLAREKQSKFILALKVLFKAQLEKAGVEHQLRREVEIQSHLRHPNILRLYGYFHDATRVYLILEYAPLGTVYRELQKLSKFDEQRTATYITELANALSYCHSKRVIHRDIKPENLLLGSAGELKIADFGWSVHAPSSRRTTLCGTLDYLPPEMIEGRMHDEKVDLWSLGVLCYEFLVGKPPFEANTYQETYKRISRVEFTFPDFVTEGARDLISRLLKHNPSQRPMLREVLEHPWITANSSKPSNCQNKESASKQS
Briefly: Selectivity interaction (ActivX KiNativ screen (kinase selectivity in THP-1 cell lysates)) EUB0000639a STK6. Particulars: lysate, at 5 µM. Type of experiment: subcellular.

Experiment [5] has as its target Tyrosine-protein kinase receptor UFO (Homo sapiens) (UniProt P30530). Briefly: Selectivity interaction (ActivX KiNativ screen (kinase selectivity in THP-1 cell lysates)) EUB0000639a AXL. Format: subcellular. To be noted: lysate.
Experiment [6] concerns the target T3, Inhibitor of nuclear factor kappa-B kinase subunit beta (Homo sapiens) (UniProt O14920).
T3 sequence (whole entry): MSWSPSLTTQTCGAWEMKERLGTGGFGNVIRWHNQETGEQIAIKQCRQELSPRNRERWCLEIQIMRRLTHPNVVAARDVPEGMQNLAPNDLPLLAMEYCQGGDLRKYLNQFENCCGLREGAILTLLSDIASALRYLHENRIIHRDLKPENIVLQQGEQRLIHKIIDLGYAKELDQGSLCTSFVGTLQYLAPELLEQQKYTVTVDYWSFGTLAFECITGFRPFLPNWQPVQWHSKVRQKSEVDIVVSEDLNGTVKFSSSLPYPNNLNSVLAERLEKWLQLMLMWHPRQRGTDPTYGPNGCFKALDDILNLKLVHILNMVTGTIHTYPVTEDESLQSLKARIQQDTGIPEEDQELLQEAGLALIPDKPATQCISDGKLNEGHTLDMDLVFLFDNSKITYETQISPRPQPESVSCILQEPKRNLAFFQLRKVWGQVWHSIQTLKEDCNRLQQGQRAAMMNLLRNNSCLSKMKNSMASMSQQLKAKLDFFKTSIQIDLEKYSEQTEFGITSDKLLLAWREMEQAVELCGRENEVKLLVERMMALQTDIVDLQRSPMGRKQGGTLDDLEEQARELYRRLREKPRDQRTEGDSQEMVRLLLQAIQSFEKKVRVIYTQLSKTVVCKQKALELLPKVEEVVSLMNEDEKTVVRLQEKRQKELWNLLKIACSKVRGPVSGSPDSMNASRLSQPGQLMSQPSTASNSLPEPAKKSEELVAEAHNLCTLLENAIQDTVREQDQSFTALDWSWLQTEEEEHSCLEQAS
Briefly: Selectivity interaction (ActivX KiNativ screen (kinase selectivity in THP-1 cell lysates)) EUB0000639a IKBKB. Particulars: lysate, at 1 µM. Type of experiment: subcellular.

Experiment [7] deals with Mitogen-activated protein kinase 6 (Homo sapiens) (UniProt Q16659). Briefly: Selectivity interaction (ActivX KiNativ screen (kinase selectivity in THP-1 cell lysates)) EUB0000639a MAPK6. To be noted: lysate. Type of experiment: subcellular.
Chain of Mitogen-activated protein kinase 6 (Homo sapiens) (Q16659 whole entry): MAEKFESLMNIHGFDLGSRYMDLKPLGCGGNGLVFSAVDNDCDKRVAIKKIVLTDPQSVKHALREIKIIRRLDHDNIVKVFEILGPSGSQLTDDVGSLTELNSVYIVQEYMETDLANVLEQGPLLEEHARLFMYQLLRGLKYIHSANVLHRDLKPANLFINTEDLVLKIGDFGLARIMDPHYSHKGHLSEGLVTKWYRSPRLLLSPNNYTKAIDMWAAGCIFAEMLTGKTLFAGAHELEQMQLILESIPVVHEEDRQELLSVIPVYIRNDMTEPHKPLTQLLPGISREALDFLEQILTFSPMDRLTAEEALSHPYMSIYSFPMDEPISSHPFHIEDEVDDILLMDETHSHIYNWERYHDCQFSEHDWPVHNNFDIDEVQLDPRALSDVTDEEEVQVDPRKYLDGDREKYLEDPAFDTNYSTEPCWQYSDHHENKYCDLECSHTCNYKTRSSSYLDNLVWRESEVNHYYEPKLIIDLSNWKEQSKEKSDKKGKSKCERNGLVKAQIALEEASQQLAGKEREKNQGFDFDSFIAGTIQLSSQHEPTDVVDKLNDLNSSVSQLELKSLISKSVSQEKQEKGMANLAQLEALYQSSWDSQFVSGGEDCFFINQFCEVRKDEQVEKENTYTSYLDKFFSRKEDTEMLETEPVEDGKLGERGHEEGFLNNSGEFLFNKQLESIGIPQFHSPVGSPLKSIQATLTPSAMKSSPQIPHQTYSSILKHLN
Experiment [8] has as its target MAP/microtubule affinity-regulating kinase 3 (Homo sapiens) (UniProt P27448). Briefly: Selectivity interaction (ActivX KiNativ screen (kinase selectivity in THP-1 cell lysates)) EUB0000639a MARK3. Format: subcellular. Particulars: lysate, at 0.01 µM.
The target in experiment [9] is Serine/threonine-protein kinase PAK 6 (Homo sapiens) (UniProt Q9NQU5). Particulars: at 10 µM.
Chain of Serine/threonine-protein kinase PAK 6 (Homo sapiens) (Q9NQU5 whole entry, looked up): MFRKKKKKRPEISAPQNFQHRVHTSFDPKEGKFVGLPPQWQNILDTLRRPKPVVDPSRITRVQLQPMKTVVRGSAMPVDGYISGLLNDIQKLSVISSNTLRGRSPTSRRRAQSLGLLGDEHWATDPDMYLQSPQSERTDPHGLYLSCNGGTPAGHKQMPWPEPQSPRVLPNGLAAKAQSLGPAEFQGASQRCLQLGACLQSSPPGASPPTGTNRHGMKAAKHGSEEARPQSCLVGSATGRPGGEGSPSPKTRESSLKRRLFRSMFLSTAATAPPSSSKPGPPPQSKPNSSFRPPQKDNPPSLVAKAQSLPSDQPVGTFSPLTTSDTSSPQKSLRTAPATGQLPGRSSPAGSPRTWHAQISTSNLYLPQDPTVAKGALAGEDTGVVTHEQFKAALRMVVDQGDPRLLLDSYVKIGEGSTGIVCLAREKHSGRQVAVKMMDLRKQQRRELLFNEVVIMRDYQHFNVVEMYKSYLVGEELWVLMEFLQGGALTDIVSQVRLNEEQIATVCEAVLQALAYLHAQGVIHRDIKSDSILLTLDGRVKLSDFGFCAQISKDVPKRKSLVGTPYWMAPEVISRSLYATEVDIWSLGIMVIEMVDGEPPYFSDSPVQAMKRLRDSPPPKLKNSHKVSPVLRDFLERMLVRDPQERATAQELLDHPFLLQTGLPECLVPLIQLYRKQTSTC
The target of experiment [10] is Adenosine receptor A1 (Homo sapiens) (UniProt P30542). Briefly: Selectivity interaction (Eurofins CEREP Diversity Profile (receptors and ion channels)) EUB0000279b ADORA1. To be noted: at 10 µM.
Chain of Adenosine receptor A1 (Homo sapiens) (P30542 whole entry, the tested form may be a part): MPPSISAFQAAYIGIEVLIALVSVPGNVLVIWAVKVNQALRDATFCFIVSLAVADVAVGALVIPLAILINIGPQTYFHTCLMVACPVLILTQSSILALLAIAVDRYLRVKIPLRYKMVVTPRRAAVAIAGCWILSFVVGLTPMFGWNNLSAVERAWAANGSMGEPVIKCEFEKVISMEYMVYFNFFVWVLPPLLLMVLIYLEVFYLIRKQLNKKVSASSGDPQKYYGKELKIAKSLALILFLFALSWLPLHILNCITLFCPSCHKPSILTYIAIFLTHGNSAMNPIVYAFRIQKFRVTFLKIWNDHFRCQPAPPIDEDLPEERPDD
The target of experiment [11] is Lethal(3)malignant brain tumor-like protein 1 (Homo sapiens) (UniProt Q9Y468). Briefly: Selectivity interaction (PWWP, WD40, and Tudor domain panel (DSLS measurements, literature)) EUB0000270b L3MBTL.
The target of experiment [12] is Cyclin-dependent kinase 5 (Homo sapiens, UniProt Q00535). Briefly: Selectivity interaction (KinomeScan (DiscoverX)) EUB0000618a CDK5. Particulars: at 10 µM.

From ChEMBL document CHEMBL5465560, “Selectivity Literature for EUbOPEN Chemogenomic Library” (2024) come the findings set out here.

Molecules are shown by their SMILES.

Chain of Tyrosine-protein kinase receptor UFO (Homo sapiens) (P30530 whole entry): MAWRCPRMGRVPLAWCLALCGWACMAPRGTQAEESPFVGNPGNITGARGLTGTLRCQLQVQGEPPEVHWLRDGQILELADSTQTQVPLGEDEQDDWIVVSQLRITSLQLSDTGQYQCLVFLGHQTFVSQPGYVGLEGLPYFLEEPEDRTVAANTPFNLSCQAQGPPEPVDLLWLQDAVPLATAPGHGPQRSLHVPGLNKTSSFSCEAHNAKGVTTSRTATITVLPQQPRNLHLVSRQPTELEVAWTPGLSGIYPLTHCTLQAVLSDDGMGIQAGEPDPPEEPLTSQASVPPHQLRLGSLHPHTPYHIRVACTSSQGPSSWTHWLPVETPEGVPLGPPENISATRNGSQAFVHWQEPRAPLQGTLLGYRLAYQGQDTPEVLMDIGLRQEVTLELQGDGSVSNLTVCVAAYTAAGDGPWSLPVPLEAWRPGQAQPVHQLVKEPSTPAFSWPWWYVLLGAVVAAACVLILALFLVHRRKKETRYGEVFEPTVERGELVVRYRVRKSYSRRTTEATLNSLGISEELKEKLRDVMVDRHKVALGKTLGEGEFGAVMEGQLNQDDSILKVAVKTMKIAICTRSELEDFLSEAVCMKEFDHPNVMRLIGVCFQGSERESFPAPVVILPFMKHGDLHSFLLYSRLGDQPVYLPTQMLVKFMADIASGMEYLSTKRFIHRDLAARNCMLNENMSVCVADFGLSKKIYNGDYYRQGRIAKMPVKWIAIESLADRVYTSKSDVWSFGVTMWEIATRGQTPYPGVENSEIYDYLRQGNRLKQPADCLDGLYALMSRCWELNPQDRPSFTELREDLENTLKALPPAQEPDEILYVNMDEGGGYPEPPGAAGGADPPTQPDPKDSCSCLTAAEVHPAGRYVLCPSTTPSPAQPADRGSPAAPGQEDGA
Chain of MAP/microtubule affinity-regulating kinase 3 (Homo sapiens) (P27448 whole entry, looked up): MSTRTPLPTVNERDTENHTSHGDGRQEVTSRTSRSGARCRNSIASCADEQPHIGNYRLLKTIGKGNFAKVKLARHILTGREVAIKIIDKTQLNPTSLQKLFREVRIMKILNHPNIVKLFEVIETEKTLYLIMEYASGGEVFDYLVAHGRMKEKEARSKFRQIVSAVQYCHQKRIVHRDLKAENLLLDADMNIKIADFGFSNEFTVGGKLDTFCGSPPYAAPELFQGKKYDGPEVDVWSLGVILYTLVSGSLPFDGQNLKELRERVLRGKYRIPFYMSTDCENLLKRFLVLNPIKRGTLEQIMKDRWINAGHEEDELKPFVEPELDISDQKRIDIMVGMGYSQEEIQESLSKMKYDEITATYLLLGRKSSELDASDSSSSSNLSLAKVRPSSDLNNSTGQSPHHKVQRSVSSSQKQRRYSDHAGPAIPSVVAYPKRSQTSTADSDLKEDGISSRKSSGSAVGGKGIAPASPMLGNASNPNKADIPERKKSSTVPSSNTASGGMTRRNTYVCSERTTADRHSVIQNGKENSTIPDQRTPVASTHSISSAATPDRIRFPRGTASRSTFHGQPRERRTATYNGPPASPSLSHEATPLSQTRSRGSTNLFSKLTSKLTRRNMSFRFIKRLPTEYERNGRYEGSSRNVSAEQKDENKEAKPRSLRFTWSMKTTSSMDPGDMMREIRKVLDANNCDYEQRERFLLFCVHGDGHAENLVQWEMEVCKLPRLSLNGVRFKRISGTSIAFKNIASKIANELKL
Chain of Mitogen-activated protein kinase 1 (P28482 whole entry): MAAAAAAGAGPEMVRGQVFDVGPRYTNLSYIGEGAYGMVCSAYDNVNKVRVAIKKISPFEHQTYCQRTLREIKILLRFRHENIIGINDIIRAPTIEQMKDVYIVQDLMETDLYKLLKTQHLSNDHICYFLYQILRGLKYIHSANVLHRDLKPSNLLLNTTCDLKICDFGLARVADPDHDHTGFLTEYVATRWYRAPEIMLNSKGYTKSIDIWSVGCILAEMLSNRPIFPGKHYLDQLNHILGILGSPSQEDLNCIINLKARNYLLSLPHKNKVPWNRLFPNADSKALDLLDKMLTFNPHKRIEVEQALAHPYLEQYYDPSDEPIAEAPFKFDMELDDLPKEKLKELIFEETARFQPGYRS
Chain of Phosphatidylinositol 4,5-bisphosphate 3-kinase catalytic subunit beta isoform (Homo sapiens) (P42338 whole entry, looked up, canonical isoform): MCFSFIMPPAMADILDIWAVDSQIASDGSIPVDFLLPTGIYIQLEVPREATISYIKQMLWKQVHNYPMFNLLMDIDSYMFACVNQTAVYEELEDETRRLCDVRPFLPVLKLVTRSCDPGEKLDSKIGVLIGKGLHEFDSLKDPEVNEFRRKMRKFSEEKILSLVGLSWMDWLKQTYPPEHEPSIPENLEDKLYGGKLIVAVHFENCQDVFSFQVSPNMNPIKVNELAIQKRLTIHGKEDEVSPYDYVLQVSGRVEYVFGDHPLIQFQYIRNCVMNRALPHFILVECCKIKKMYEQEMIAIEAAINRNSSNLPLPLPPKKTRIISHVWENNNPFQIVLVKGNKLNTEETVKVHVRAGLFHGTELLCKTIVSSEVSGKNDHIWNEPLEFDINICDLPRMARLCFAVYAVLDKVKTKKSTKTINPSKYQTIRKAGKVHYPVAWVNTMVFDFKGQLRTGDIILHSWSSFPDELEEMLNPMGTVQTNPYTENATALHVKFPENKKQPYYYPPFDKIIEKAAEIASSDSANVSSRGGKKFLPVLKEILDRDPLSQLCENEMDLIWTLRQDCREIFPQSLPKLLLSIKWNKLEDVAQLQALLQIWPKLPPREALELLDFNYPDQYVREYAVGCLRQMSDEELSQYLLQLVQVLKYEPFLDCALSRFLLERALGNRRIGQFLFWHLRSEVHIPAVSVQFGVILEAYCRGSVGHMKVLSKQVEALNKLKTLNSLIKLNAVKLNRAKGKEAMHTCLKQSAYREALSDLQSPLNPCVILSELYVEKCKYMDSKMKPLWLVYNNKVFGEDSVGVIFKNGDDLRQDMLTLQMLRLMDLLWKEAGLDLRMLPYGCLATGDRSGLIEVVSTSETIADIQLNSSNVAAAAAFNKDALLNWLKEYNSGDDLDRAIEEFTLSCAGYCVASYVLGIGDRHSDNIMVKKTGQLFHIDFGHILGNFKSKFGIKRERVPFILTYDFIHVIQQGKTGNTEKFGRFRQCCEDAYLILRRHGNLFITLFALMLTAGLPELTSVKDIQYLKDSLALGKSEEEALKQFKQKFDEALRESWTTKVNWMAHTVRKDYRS

Regarding `CNC(=O)Nc1ccc(-c2nc(N3CC4CCC(C3)O4)c3cnn(C4CCC5(CC4)OCCO5)c3n2)cc1`, the % of control in experiment [1] amounted to 46%.
Regarding `N#Cc1cccc(-c2c[nH]c3ncnc(N4CCOCC4)c23)c1`, the % of control in experiment [2] came to 98%; in [3], 100%.
As to `CC[C@@H]1[C@H](F)C(=O)N[C@@H]1COc1nccc2cc(C(N)=O)c(OC)cc12` [ZIMLOVISERTIB], the % of inhibition in experiment [4] is 64.4%; in experiment [5] (at 0.01 µM) it was 0.7%; in experiment [5] (at 0.04 µM), -4.1%; in experiment [5] (at 0.2 µM), 7.8%; in [5] (at 1 µM), 27.6%; in experiment [5] (at 5 µM), 63.2%. The % of inhibition in experiment [6] is -6.6%; in [7] (at 0.01 µM), -20%; in [7] (at 0.04 µM), -5.5%; in [7] (at 0.2 µM) it was -11.8%; in experiment [7] (at 1 µM), -1.3%; in [7] (at 5 µM), -1%. Also, the % of inhibition in experiment [8] stood at 10.4%.
For the molecule `CCN(CC)CCCCNc1ncc2cc(-c3cc(OC)cc(OC)c3)c(NC(=O)NC(C)(C)C)nc2n1`, the % of control in experiment [9] is 100%.
`CC(=O)c1cc(-c2ccccc2OCC2CC2)c2ncccn12` returned a % of control in [10] of 35%.
The molecule `Cc1cc(CN)cc(C)c1-c1ncn(C)c1-c1cncn1C` showed a dTagg in experiment [11] of 0.2 K.
As for `O[C@H]1CC[C@H](Nc2ncc3nc(Nc4c(F)cc(F)cc4F)n([C@H]4CCOC4)c3n2)CC1`, the % of control in experiment [12] amounted to 100%.
